In publication PMC3477139 (PLoS ONE, 2012):

Assays:
human GLP-1R = target: T1, human GLP-1R (Homo sapiens, UniProt P43220); experiment: Intracellular Ca2+ signaling in fluo-4-loaded HEK-GLP-1R cells; format: cell-based
T1 construct: expressed in transfected cells; vector pcDNA5/FRT
Method: (§1) Concentration-response curves were fitted using GraphPad Prism (GraphPad Software Inc., CA) using a standard four parameter logistic equation. All data are representative of n≥3 or are presented as mean+/±s.e.m., where n = 3 unless otherwise stated. Statistical analysis was by oneway ANOVA and where P<0.05, followed by Bonferroni's or Dunnett's multiple range test as indicated. Alternatively analysis was performed by Student's t-test. Where potency estimates are given these are pEC50 values (−log10 of the molar concentration giving 50% of the maximal response).

[1] = target: T2, GLP-1R (native, rat insulinoma cell line INS-1E) (Rattus norvegicus, UniProt P32301); experiment: ERK activation (phospho-ERK Western blot) in INS-1E cells; format: cell-based; settings: single ligands, 5 min; much lower concentrations of GLP-1 7–36 amide required
T2 construct: the rat insulinoma cell line, INS-1E, with native expression of the GLP-1R; endogenous in cells; host or cells: INS-1E rat insulinoma cells (gift of Prof. C.B. Wollheim)
T2 sequence (P32301 22-463): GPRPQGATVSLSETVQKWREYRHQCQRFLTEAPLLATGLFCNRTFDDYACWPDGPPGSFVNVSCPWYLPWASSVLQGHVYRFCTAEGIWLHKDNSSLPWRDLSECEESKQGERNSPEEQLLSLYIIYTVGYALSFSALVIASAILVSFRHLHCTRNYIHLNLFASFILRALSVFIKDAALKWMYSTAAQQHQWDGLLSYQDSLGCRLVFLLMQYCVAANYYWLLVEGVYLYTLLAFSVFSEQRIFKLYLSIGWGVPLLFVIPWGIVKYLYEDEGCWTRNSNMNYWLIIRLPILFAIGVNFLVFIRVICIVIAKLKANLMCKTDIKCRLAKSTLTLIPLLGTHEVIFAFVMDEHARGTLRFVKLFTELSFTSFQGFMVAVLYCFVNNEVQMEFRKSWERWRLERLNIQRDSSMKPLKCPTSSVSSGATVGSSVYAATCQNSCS
Method: (§2) HEK-Flp-In cells with stable recombinant expression of the human GLP-1R (HEK-GLP-1R) were cultured in DMEM with high glucose supplemented with 10% FBS, 100 µg/ml streptomycin and 100 units/ml penicillin sulphate. These cells were originally generated by transfection of HEK-Flp-In cells (Invitrogen: Paisley, U.K.) with pcDNA5/FRT containing the human GLP-1R. […] INS-1E cells were kindly provided by Prof. C.B. Wollheim of the University of Geneva, Switzerland [19]. These cells were used between passages 65–90 and cultured in RPMI media containing 11.1 mM glucose, 5% heat-inactivated FBS, 100 µg/ml streptomycin, 100 units/ml penicillin sulphate, 100 units/ml neomycin, 50 µM β-mercaptoethanol, 10 mM HEPES and 1 mM sodium pyruvate. All cells were cultured at 37°C in a 5% CO2 humidified atmosphere and passaged at confluence.
as §1

β2-adrenoceptors = experiment: cAMP accumulation via β2-adrenoceptors in HEK-GLP-1R cells; format: cell-based
Method: Ligands or vehicle control (40 µl) were added and reactions terminated after the appropriate times by replacement of the aqueous phase with ice-cold 0.5 M trichloroacetic acid. […] Reactions were terminated as above.
(§3) The cAMP was extracted from either intact cell or membrane preparations using a method identical to that for extraction of Ins(1,4,5)P3 [22]. Levels of cAMP were then determined by a competitive radioreceptor assay using binding protein purified from bovine adrenal glands and related to cellular protein assessed by Bradford assay.
All data are mean±/+s.e.m., n = 3–4, *** P<0.001 and ** P<0.01 by Bonferroni's multiple range test. For clarity only differences between ‘numerical’ and ‘co-addition’ conditions are shown.

[2] = target: T2, GLP-1R (native, rat insulinoma cell line INS-1E); experiment: cAMP generation in INS-1E cells; format: cell-based
Method: as §2
Confluent monolayers of HEK-GLP-1R cells cultured in 24-well plates pre-coated with poly-D-lysine (0.1% w/v) where washed twice with 0.5 ml Krebs-HEPES buffer (KHB, composition: 10 mM HEPES; 4.2 mM NaHCO3; 11.7 mM D-glucose; 1.18 mM MgSO4·7H2O; 1.18 mM KH2PO4; 4.69 mM KCl; 118 mM NaCl; 1.3 mM CaCl2·2H2O; pH 7.4) containing 0.1% (w/v) BSA (KHB-BSA) before incubation (10 min, 37°C) in 360 µl KHB-BSA containing 500 µM isobutylmethylxanthine (IBMX). Ligands or vehicle control (40 µl) were added and reactions terminated after the appropriate times by replacement of the aqueous phase with ice-cold 0.5 M trichloroacetic acid. INS-1E cells grown to confluence in 24-well plates were treated similarly with the exception that after washing in KHB, cells were incubated in 200 µl KHB-BSA containing 1.4 mM glucose without IBMX for 2 h followed by challenge with ligands (or vehicle) for 15 min at 37°C in 400 µl KHB-BSA, in the presence of 10 mM glucose and 500 µM IBMX. Reactions were terminated as above.
as §3, §1

GLP-1R = settings: cited from earlier work
Description: Such proteolysis is thought to remove biological activity.

wild-type HEK293 cells = experiment: ERK activation in wild-type HEK293 cells; format: cell-based; settings: data not shown
Method: Cells grown to confluence on 24-well plates pre-coated with poly-D-lysine (0.1% w/v) were washed and equilibrated in KHB at 37°C (400 µl). Cells were challenged at 37°C in 400 µl KHB-BSA and reactions terminated by replacement of buffer with 100 µl ice-cold Laemmli sample buffer (62.5 mM Tris-HCl, pH 6.8, 2% w/v SDS, 10% v/v glycerol, 50 mM DTT and 0.1% bromophenol blue). Proteins (∼30 µg) were separated by 12% SDS-PAGE, transferred onto polyvinylidene fluoride membranes, blocked for 1 h in 5% (w/v) skimmed milk powder in TTBS (150 mM NaCl, 50 mM Tris, pH 7.5, 0.1% Tween-20) and incubated overnight at 4°C with anti-phospho-ERK antibody (1∶2000) or anti-S6 antibody (1∶20,000) in 3% BSA in TTBS. Blots were washed (3×10 min) in TTBS and incubated for 1 h with anti-mouse HRP conjugated secondary antibody (1∶1000 in blocking buffer). After washing in TTBS (3×10 min), blots were exposed to ECL detection reagents (Uptima-Interchim, Montlucon, France) according to the manufacturer's guidelines and bands visualised using Kodak Medical X-ray film (Wolf Laboratories Ltd, Pocklington, U.K.). The intensities of the immunoblot bands were determined using ImageJ.

T1 sequence (P43220 24-463): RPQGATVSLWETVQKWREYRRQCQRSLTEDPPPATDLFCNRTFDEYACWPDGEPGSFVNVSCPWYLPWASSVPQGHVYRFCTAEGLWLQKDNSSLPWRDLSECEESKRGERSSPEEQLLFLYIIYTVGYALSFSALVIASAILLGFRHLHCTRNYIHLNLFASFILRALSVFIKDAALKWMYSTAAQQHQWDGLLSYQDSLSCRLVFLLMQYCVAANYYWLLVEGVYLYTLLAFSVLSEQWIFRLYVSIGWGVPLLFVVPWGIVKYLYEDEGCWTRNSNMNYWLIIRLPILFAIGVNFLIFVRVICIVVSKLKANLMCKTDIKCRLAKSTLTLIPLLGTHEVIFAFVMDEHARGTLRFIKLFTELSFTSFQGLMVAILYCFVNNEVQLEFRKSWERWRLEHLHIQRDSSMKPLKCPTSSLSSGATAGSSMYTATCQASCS

With `CC(C)(C)Nc1nc2cc(Cl)c(Cl)cc2nc1S(C)(=O)=O` [compound 2, 6,7-dichloro-2-methylsulfonyl-3-N-tert-butylaminoquinoxaline] the “fluorescence change sensitive to thapsigargin” value (human GLP-1R; compound 2, 10 µM) was “did not cause an appreciable, thapsigargin-sensitive increase in fluorescence”, the “fluorescence change sensitive to thapsigargin” value (human GLP-1R; compound 2, 100 µM, with/without thapsigargin (2 µM, 5 min)) was “a proportion of the change in fluorescence in response to compound 2 was blocked by thapsigargin” and the “ERK activation (INS-1E)” value [1] was “robust and approximately equivalent activation of ERK”. The “effect on cAMP generation by the β-adrenoceptor” value (β2-adrenoceptors; Figure 3D) was “inability of compound 2 to influence cAMP generation”, the “cAMP accumulation on co-stimulation with isoproterenol and compound 2 versus numerical sum” value (β2-adrenoceptors; isoproterenol (100 µM) + compound 2 (1 µM), IBMX, 5% DMSO) was “only equivalent to the numerical addition of responses to the two ligands when used alone” and the “cAMP elevation (INS-1E)” value ([2]; 3 µM compound 2 alone, 15 min) was 40±8 pmol/mg protein. For the same compound, the “cAMP response in INS-1E (in words)” value ([2]; 15 min, 10 mM glucose, IBMX) was “elevated cAMP with low-potency”, the “Emax as % of that evoked by GLP-1 7–36 amide, cAMP (INS-1E)” value ([2]; compound 2 alone, concentrations greater than 10 µM not tested) was 34% and the “effect at the GLP-1R (in words)” value (GLP-1R; ago-allosteric modulator, ref [15]) was “not only enhancing affinity of the GLP-1R for GLP-1 but providing effective direct agonism”. For the same compound, the “effect on affinity for GLP-1 and on its potency or intrinsic activity” value (GLP-1R; ref [7], [15]) was “modestly increases the affinity for GLP-1 it has little impact on potency or intrinsic activity”, the “interaction of compound 2 and GLP-1 7–36 amide on ERK activation” value (GLP-1R; ref [16]) was “lack of interaction between compound 2 and GLP-1 7–36 amide on ERK activation” and the “ERK activation in wild-type HEK293 cells” value (wild-type HEK293 cells) was “Neither GLP-1 9–36 amide, GLP-1 7–36 amide nor compound 2 increased ERK activation”.
